Values of other authors, collected in US12403113B2, “Composition containing creatine fatty ester for use in medicine” (COMMISSARIAT À L'ÉNERGIE ATOMIQUE ET AUX ÉNERGIES …, priority 2019, dated 2025).

How the values were obtained:
CrT−/y mice = conditions: 0.02 mg/g body/weight/day for 5 days, intracerebroventricular; preliminary
CTD patients = conditions: pure creatine
DMD patients = conditions: 5 g of creatine/day for 8 weeks, oral
[1] = tested on: Huntington's disease patients; conditions: 8 g/day for 16 weeks, 64 patients

| Compound | performance in the object recognition task (CrT−/y mice) | health and longevity (mice) | improvement in CTD patients (CTD patients) | muscle Phosphocreatine/Inorganic Phosphate ratio (DMD patients) | muscle strength in short term (DMD patients) | tolerability (DMD patients; 18 patients vs placebo) | serum 8-hydroxy-2′-deoxyguanosine (marker of oxidative DNA damage) [1] |
| --- | --- | --- | --- | --- | --- | --- | --- |
| CCCCCCCCCCCCOC(=O)CN(C)C(=N)N [DCE, dodecyl creatine ester] | significantly improves | – | – | – | – | – | – |
| CN(CC(=O)O)C(=N)N [creatine, 2-1(methylguanidino) acetic acid] | – | improves health and longevity | does not lead to any improvement | significantly improved | preserved | well tolerated | marked decrease |
